The target in data set [1] is T1, DYRK1A catalytic domain (DYRK1A-ΔC) (Rattus norvegicus, UniProt Q63470).
T1 construct: The cDNA coding for the catalytic domain (residues 1-502) of rat DYRK1A; 6xHis; made in house; host or cells: E. coli BL21(DE3), pET28
As to the kind of experiment: In vitro DYRK1A kinase inhibition, UFLC assay with fluorescent peptide substrate. The settings on record: read-out: IC50, in vitro inhibition of DYRK1A. The class given is biochemical.

On the set-up of data set [2]: method as in PMID 27194478. To be noted: other drugs acting on the central nervous system; cited from earlier work.
For data set [3], the system named is KB cells. As to the kind of experiment: KB cell proliferation / cytotoxicity (CellTiter-Blue). To be noted: Homo sapiens; for inhibition at 10 µM: 10^−5 M, read-out: % Growth inhibition 10^−5 M; for inhibition at 10 µM / inhibition at 1 µM: 72 h; for inhibition at 1 µM: 10^−6 M, read-out: % Growth inhibition 10^−6 M. It counts as cell-based. Here is the method: Cancer cell lines were obtained from the American Type Culture Collection (Rockville, MD, USA) and were cultured according to the supplier’s instructions. Briefly, human KB epidermal carcinoma cells were grown in Dulbecco minimal essential medium (DMEM) containing 4.5 g/L glucose supplemented with 10% fetal calf serum (FCS) and 1% glutamine, 100 UI penicillin, 100 µg/mL streptomycin and 1.5 µg/mL fungizone and maintained at 37 °C in a humidified atmosphere containing 5% CO2. Cell viability was assessed using Promega CellTiter-Blue TM reagent according to the manufacturer’s instructions. Cells were seeded in 96-well plates (5 × 10^3 cells/well) containing […]. After 24 h of culture, the cells were supplemented with […] of the studied compound dissolved in DMSO (less than 0.1% in each preparation). After 72 h of incubation, […] of resazurin was added for 2 h before recording fluorescence (λex = 560 nm, λem = 590 nm) using a Victor microtiter plate fluorimeter (Perkin-Elmer, USA).

In data set [4] the target is T2, DYRK1A (Homo sapiens, UniProt Q13627).
T2 construct: vectors encoding full-length human DYRK1A and Tau; host or cells: HEK293
As to the kind of experiment: Inhibition of tau phosphorylation by DYRK1A in cellulo (HEK293 co-transfected with DYRK1A and Tau, ClariCELL ELISA phospho-TauT212). The class given is cell-based. (In general: In an ELISA, binding on a coated surface is turned into a signal by an enzyme label.)

Where [5] appears, read: 3,5-diaryl-7-azaindoles 4a-4f, Fig. 4.
The mark [6] stands for this setting: 3,5-diaryl-7-azaindoles 5a-5g, Fig. 5.

Usually IC50 stands for the point on the concentration scale where inhibition reaches its midpoint. For orientation: inhibition means the relative decrease from the control value, in per cent.

Each structure is given as a SMILES string. Where “and” joins values, the source holds several entries; their conditions need not be identical. Identical values can stand only once. Like-named read-outs stand apart in the source and are kept apart here.

`COc1ccc(-c2c[nH]c3ncc(-c4ccc(OCc5ccccc5)cc4)cc23)cc1F` [Compound 4e]: the IC50 in data set [1] (setting [5]) came out at 6090 nM.

As for `CC(NC(C)(C)C)C(=O)c1cccc(Cl)c1` (centres unmarked) [buproprion], the “Kp (brain concentration/plasma concentration)” value in data set [2] is 4.97. For the molecule `COc1ccc(-c2cnc3[nH]cc(-c4ccc(F)cc4)c3c2)cc1OC` [Compound 4a], the IC50 in data set [1] (setting [5]) came out at 1430 nM. As for `Oc1ccc(-c2cnc3[nH]cc(-c4ccc(F)cc4)c3c2)c(O)c1` [Compound 5b], the concentration for half-maximal inhibition (IC50) in data set [1] (setting [6]) was found to be 191 nM. With `COc1ccc(-c2c[nH]c3ncc(-c4ccc(OCc5ccccc5)c(OCc5ccccc5)c4)cc23)cc1OC` [Compound 4f], in data set [1] (setting [5]), the 50% inhibitory concentration (IC50) came out at 18500 nM. Regarding `CNCCC(Oc1ccc(C(F)(F)F)cc1)c1ccccc1` (centres unmarked) [fluoxetine], in data set [2], the “Kp (brain concentration/plasma concentration)” value was 5.23. As for `COc1ccc(-c2cnc3[nH]cc(-c4ccc(F)cc4)c3c2)c(OC)c1` [Compound 4b], in data set [1] (setting [5]), the IC50 was 920 nM. Turning to `Oc1ccc(-c2cnc3[nH]cc(-c4ccc(F)c(F)c4)c3c2)c(O)c1` [Compound 5d], the IC50 in data set [1] (setting [6]) was determined as 232 nM.

`COc1ccc(-c2cnc3[nH]cc(-c4ccc(F)c(F)c4)c3c2)c(OC)c1` [Compound 4d]: the IC50 in data set [1] (setting [5]) came out at 37400 nM. Regarding `COc1ccc(-c2cnc3[nH]cc(-c4ccc(F)c(F)c4)c3c2)cc1OC` [Compound 4c], the IC50 in data set [1] (setting [5]) was 5260 nM.

`OCCN1CCN(CCCN2c3ccccc3Sc3ccc(Cl)cc32)CC1` [perphenazine]: the “Kp (brain concentration/plasma concentration)” value in data set [2] was 7.12. Regarding `COc1ccc(-c2c[nH]c3ncc(-c4ccc(O)cc4)cc23)cc1F` [Compound 5e], the concentration for half-maximal inhibition (IC50) in data set [1] (setting [6]) was determined as 41.5 nM. Further, in data set [3], the inhibition at 10 µM was 66 ± 3% and the inhibition at 1 µM was 30 ± 1%. For `Oc1ccc(-c2cnc3[nH]cc(-c4ccc(F)c(F)c4)c3c2)cc1O` [Compound 5c], the IC50 in data set [1] (setting [6]) stood at 56.6 nM. The inhibition at 1 µM in data set [3] (KB) amounted to 6 ± 2%.

For `Oc1ccc(-c2cnc3[nH]cc(-c4ccc(O)c(F)c4)c3c2)cc1` [Compound 5g], the concentration for half-maximal inhibition (IC50) in data set [1] (setting [6]) was 9.34 nM and 9.3 nM; in data set [3] (estimated, read-out: estimated IC50, KB cell growth inhibition), approximately 1000 nM; in data set [4] (HEK293 transfected with DYRK1A and tau, 2 h incubation), 380 nM. Besides, the inhibition at 10 µM in data set [3] (KB) worked out at 95 ± 1%. For the same molecule, the inhibition at 1 µM in data set [3] (KB) amounted to 46 ± 1%. Moreover, the “Ratio between in cellulo and in vitro inhibitory potencies” value in data set [4] (tau phosphorylation IC50 / in vitro DYRK1A IC50) is listed as 41.

As to `COc1ccc(-c2c[nH]c3ncc(-c4ccc(O)c(O)c4)cc23)cc1OC` [Compound 5f], in data set [1] (setting [6]), the half-maximal inhibitory concentration (IC50) was 476 nM.

The values above are taken from publication PMC5809559, “DYRK1A inhibition and cognitive rescue in a Down syndrome mouse model are induced by new fluoro-DANDY derivatives” (Scientific Reports, 2018).
